Literature values as cited in patent publication US5243035A, “Sialic acid-containing glycolipid derivatives” (Drug Delivery System Institute, Ltd., priority 1990, dated 1993).

Conditions: incorporated into liposome membrane; literature report

## ganglioside GM1
  resistance of liposome to capture by the reticuloendothelial system: increased resistance to capture by the reticuloendothelial system
